Measurements: EP0491041A1, “ANTIVIRAL DRUG” (NIPPON SHINYAKU COMPANY, LIMITED, priority 1989, dated 1991)
Converted amounts (≈) assume the structure as drawn.

The molecules below were run on virus (assay: Antiviral action test: screening by inhibition of cell degeneration effect (CPE) in virus-infected HeLa cells). Conditions: amount of added drug whereby the CPE became 50%, M.O.I = 0.002, culture for three days.
Type: cell-based
Method: HeLa cells were subjected to subcultured by monolayer culture (Eagle's MEM-10% CS) and infected as M.O.I. (multiplicity of infection) = 0.01.
On the first day, HeLa cells were spread in a 75 cm³ flask and cultured on a one-day growth medium (Eagle's MEM-10% CS). On the second day, old medium was removed after confirming the formation of cell sheet, then M.O.I was made 0.01 PFU/cell and 0.5 ml of virus solution was added. The original virus solution was diluted with PBS-3% FCS solution. Operation of the virus inoculation was conducted by tilting for 1 hour at room temperature. After virus was inoculated on the cells, the virus-inoculated solution was removed, washed twice with 10 ml PBS and the residual virus solution was removed. Then 15 ml of maintenance medium (Eagle's MEM-1% CS) was added and cultured at 37°C for 2 days. The cells were observed from time to time and the culture was continued until cell fusion and cell rounding were confirmed. After the culture, medium was recovered which was used as a virus solution and was stored at -20°C until actual use.
The 78 cm³ flask containing HeLa cells which were subjected to a monolayer maintenance subculture was taken out, the old medium was discarded, 2-3 ml of 0.25% trypsine (Difco = 1:250)-0.02% EDTA/PBS(-) solution was added, tilted for a few seconds, the trypsine solution was removed and warmed at 37°C for 5 minutes. Then fresh medium was added, pipetted with a Komagome pipette and the cells were homogeneously dispersed.
Cells were counted using a cytometer, then fresh medium was added, diluted to make the cell concentration 5 x 10⁵ cells/ml, 2 ml of that was added to a laboratory dish of 35 mm diameter and cultured in a CO₂-incubator at 37°C for one day to prepare cell sheet.
The virus solution was diluted by a diluting solution to make diluted solutions of ten-times difference or step. The laboratory dish wherein HeLa cells were cultured on the previous day was taken out from the incubator, old medium was discarded and the cells were washed with each 2 ml of PBS twice. Properly diluted virus solution (0.2 ml) was added to each laboratory dish, subjected to a tilting at room temperature for 60 minutes immediately and virus was inoculated. Then the virus solution was removed, each 2 ml of 0.5% methylcellulose/Eagle's MEM-1% CS was added and cultured in a CO₂ incubator for 4 days.
The cultured laboratory dish was taken out from the CO₂-incubator and methylcellulose medium was removed. Then cells were washed with 2 ml of PDS, 2 ml of methanol was added, allowed to stand for 10 minutes and cells were immobilized and, at the same time, virus was sterilized. Hematoxylin dyeing solution (2 ml) was added to the laboratory dish which was immobilized with methanol, allowed to stand for about 10 minutes, washed with water and air-dried at room temperature. Since the cells destructed with virus were not dyed, plaque area was noted as a void and the plaque numbers were counted whereby virus value (PFU/ml) (Plaque forming units/ml) was measured.
HeLa cells during the subculture were dispersed with trypsine liquid-EDTA solution, 5 x 10⁵ cells/pore were embedded on a plate having 24 pores and cultured overnight at 37°C in a CO₂-incubator to prepare cell sheet.
As mentioned above, old medium was discarded, the cells were washed with PBS, the virus solution was diluted to make M.O.I = 0.002, 0.1 ml of it was added to each pore, subjected to a tilting at room temperature for 60 minutes and virus was inoculated to the cell.
Virus solution was removed from the cells after inoculation of virus, the cells were washed with 2 ml of PBS, each 1 ml of maintenance medium was added to each pore, then each 10 µl of the drug was added and the cells were cultured in a CO₂-incubator. Culture was conducted for three days.
The cells on the plate were observed under an invert microscope. Cell degeneration effect (CPE) was observed as cell fusion and making the cells round. […]

In the case of `CCN1C[C@H](O)[C@@H](O)[C@H](O)[C@H]1CO` [B, N-ethylmoranoline, reference compound], the “EC50 (50% CPE inhibition)” value is reported as over 100 µg/mL.

First: Cc1ccc(S(=O)(=O)O)cc1.OC[C@@H]1[C@@H](O)[C@H](O)[C@@H](O)CN1CCCC=Cc1ccccc1 [Compound No. 89, N-(5-Phenyl-4-pentenyl)moranoline tosylate]
Second: C=C(C)C1CC=C(CN2C[C@H](O)[C@@H](O)[C@H](O)[C@H]2CO)CC1.Cc1ccc(S(=O)(=O)O)cc1 (stereo partly drawn) [Compound No. 106, N-[(4-Isopropenyl-1-cyclohexenyl)methyl]moranoline tosylate]
The “EC50 (50% CPE inhibition)” value of the first is 3-fold lower: 10 µg/mL for the first, 30 µg/mL for the second.

Compared with `OC[C@@H]1[C@@H](O)[C@H](O)[C@@H](O)CN1CCCOc1ccc(Cl)cc1` [Compound No. 93, N-[3-(4-Chlorophenoxy)propyl]moranoline], `CC(=CCCN1C[C@H](O)[C@@H](O)[C@H](O)[C@H]1CO)c1ccc(Cl)cc1` [Compound No. 110, N-[4-(4-Chlorophenyl)-3-pentenyl]moranoline] is 3-fold lower in “EC50 (50% CPE inhibition)” value: 30 µg/mL (≈ 90.4 µM) for the first, 10 µg/mL (≈ 29.3 µM) for the second.

Compared with `O.OC[C@@H]1[C@@H](O)[C@H](O)[C@@H](O)CN1CC=C(c1ccccc1)c1ccc(Cl)cc1` [Compound No. 99, N-(gamma-Phenyl-4-chlorocinnamyl)moranoline monohydrate], `OC[C@@H]1[C@@H](O)[C@H](O)[C@@H](O)CN1CC=C(c1ccccc1)c1ccc(F)cc1` [Compound No. 100, N-(gamma-Phenyl-4-fluorocinnamyl)moranoline] is 3-fold lower in “EC50 (50% CPE inhibition)” value: 30 µg/mL for the first, 10 µg/mL (≈ 26.8 µM) for the second.

First: CC(=CCN1C[C@H](O)[C@@H](O)[C@H](O)[C@H]1CO)c1ccc(Br)cc1 [Compound No. 101, N-(gamma-Methyl-4-bromocinnamyl)moranoline]
Second: CCOc1ccc(C(C)=CCN2C[C@H](O)[C@@H](O)[C@H](O)[C@H]2CO)cc1 [Compound No. 160, N-[3-(4-Ethoxyphenyl)-2-butenyl]moranoline]
The “EC50 (50% CPE inhibition)” value of the first is 3-fold higher: 30 µg/mL (≈ 80.6 µM) for the first, 10 µg/mL (≈ 29.6 µM) for the second.

Compared with `CC(=CCN1C[C@H](O)[C@@H](O)[C@H](O)[C@H]1CO)c1ccc(Cl)c(Cl)c1` [Compound No. 102, N-(gamma-Methyl-3,4-dichlorocinnamyl)moranoline], `CCOc1cccc(C(C)=CCN2C[C@H](O)[C@@H](O)[C@H](O)[C@H]2CO)c1` [Compound No. 159, N-(gamma-Methyl-3-ethoxycinnamyl)moranoline] is 3-fold higher in “EC50 (50% CPE inhibition)” value: 10 µg/mL (≈ 27.6 µM) for the first, 30 µg/mL (≈ 88.9 µM) for the second.

Going from `COc1ccc(C(=CCN2C[C@H](O)[C@@H](O)[C@H](O)[C@H]2CO)c2ccccc2)cc1` [Compound No. 105, N-(gamma-Phenyl-4-methoxycinnamyl)moranoline] to `CCOc1ccc(C(C)=CCCN2C[C@H](O)[C@@H](O)[C@H](O)[C@H]2CO)cc1` [Compound No. 118, N-[4-(4-Ethoxyphenyl)-3-pentenyl]moranoline], the “EC50 (50% CPE inhibition)” value falls from 100 µg/mL (≈ 259 µM) to 30 µg/mL (≈ 85.4 µM) (3.3-fold).

`CC(=CCCN1C[C@H](O)[C@@H](O)[C@H](O)[C@H]1CO)c1cccc(F)c1` [Compound No. 107, N-[4-(3-Fluorophenyl)-3-pentenyl]moranoline] and `CC(=CCCN1C[C@H](O)[C@@H](O)[C@H](O)[C@H]1CO)c1cccc(Cl)c1` [Compound No. 111, N-[4-(3-Chlorophenyl)-3-pentenyl]moranoline] are the same in “EC50 (50% CPE inhibition)” value: 30 µg/mL (≈ 92.2 µM) for the first, 30 µg/mL (≈ 87.8 µM) for the second.

`CC(=CCCN1C[C@H](O)[C@@H](O)[C@H](O)[C@H]1CO)c1ccc(F)cc1` [Compound No. 108, N-[4-(4-Fluorophenyl)-3-pentenyl]moranoline] and `CC(=CCCN1C[C@H](O)[C@@H](O)[C@H](O)[C@H]1CO)c1ccc(N(C)C)cc1` [Compound No. 114, N-[4-(4-Dimethylaminophenyl)-3-pentenyl]moranoline] are the same in “EC50 (50% CPE inhibition)” value: 30 µg/mL (≈ 92.2 µM) for the first, 30 µg/mL (≈ 85.6 µM) for the second.

`CC(=CCCN1C[C@H](O)[C@@H](O)[C@H](O)[C@H]1CO)c1ccccc1C` [Compound No. 109, N-[4-(2-Methylphenyl)-3-pentenyl]moranoline] and `CC(=CCCN1C[C@H](O)[C@@H](O)[C@H](O)[C@H]1CO)c1ccccc1Cl` [Compound No. 112, N-[4-(2-Chlorophenyl)-3-pentenyl]moranoline] are the same in “EC50 (50% CPE inhibition)” value: 30 µg/mL (≈ 93.3 µM) for the first, 30 µg/mL (≈ 87.8 µM) for the second.

`CC(=CCCN1C[C@H](O)[C@@H](O)[C@H](O)[C@H]1CO)c1cccc(C(F)(F)F)c1` [Compound No. 113, N-[4-(3-Trifluoromethylphenyl)-3-pentenyl]moranoline] and `COc1ccccc1C(C)=CCCN1C[C@H](O)[C@@H](O)[C@H](O)[C@H]1CO` [Compound No. 116, N-[4-(2-Methoxyphenyl)-3-pentenyl]moranoline] are the same in “EC50 (50% CPE inhibition)” value: 30 µg/mL (≈ 79.9 µM) for the first, 30 µg/mL (≈ 88.9 µM) for the second.

Compared with `CC(=CCCN1C[C@H](O)[C@@H](O)[C@H](O)[C@H]1CO)c1cc(C(C)C)ccc1C` [Compound No. 119, N-[4-(2-Methyl-5-isopropylphenyl)-3-pentenyl]moranoline], `Cc1ccc(C=CCCN2CC(O)C(O)C(O)C2CO)cc1F` (stereo not drawn) [Compound No. 133, 4-[4-(3-Fluoro-4-methylphenyl)-3-butenyl]moranoline] is 10-fold higher in “EC50 (50% CPE inhibition)” value: 3 µg/mL (≈ 8.25 µM) for the first, 30 µg/mL (≈ 92.2 µM) for the second.

Compared with `OC[C@@H]1[C@@H](O)[C@H](O)[C@@H](O)C[N+]1(CC=Cc1ccccc1Cl)CC=Cc1ccccc1Cl.[Cl-]` (stereo partly drawn) [Compound No. 123, N,N-Bis(2-chlorocinnamyl)moranoline ammonium chloride], `COc1ccc(C=CCCCN2C[C@H](O)[C@@H](O)[C@H](O)[C@H]2CO)cc1Cl` [Compound No. 148, N-[5-(3-Chloro-4-methoxyphenyl)-4-pentenyl]moranoline] is 10-fold higher in “EC50 (50% CPE inhibition)” value: 3 µg/mL for the first, 30 µg/mL (≈ 80.7 µM) for the second.

`Cc1ccc(CCCCN2C[C@H](O)[C@@H](O)[C@H](O)[C@H]2CO)cc1F` [Compound No. 150, N-[4-(3-Fluoro-4-methylphenyl)butyl]moranoline] and `COc1ccc(C=CCCCN2C[C@H](O)[C@@H](O)[C@H](O)[C@H]2CO)c(C)c1` [Compound No. 151, N-[5-(4-Methoxy-2-methylphenyl)-4-pentenyl]moranoline] are the same in “EC50 (50% CPE inhibition)” value: 30 µg/mL (≈ 91.6 µM) for the first, 30 µg/mL (≈ 85.4 µM) for the second.

Going from `COCCOc1cccc(C(C)=CCN2C[C@H](O)[C@@H](O)[C@H](O)[C@H]2CO)c1` [Compound No. 157, N-[3-(3-Methoxyethoxyphenyl)-2-butenyl]moranoline] to `CCCCCCCCCCCCCC(=O)N1C[C@H](O)[C@@H](O)[C@H](O)[C@H]1CO` [Compound No. 174, N-Myristoylmoranoline], the “EC50 (50% CPE inhibition)” value falls from 100 µg/mL (≈ 272 µM) to 10 µg/mL (≈ 26.8 µM) (10-fold).

For `CCCCCCCCCCCCCCCCCC(=O)N1C[C@H](O)[C@@H](O)[C@H](O)[C@H]1CO` [Compound No. 171, N-Stearoylmoranoline], the “EC50 (50% CPE inhibition)” value was 30 µg/mL (≈ 69.8 µM).
